PubChem BioAssay AID651703 (Broad Institute, 2012)

Each molecule was assayed against Transforming acidic coiled-coil-containing protein 3 (Homo sapiens) (UniProt Q9Y6A5) (assay: inhibition of ARNT PAS-B/TACC3 complex formation – biochemical, AlphaScreen, cherry-picked samples, confirmation (AID 651703;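 note: TACC3 partner is the GST-tagged E629A mutant dimer; hits lower the signal meaning they disrupt ARNT binding to TACC3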)). Conditions: AlphaScreen His-ARNT PAS-B / GST-TACC3 binding, luminescence.

Point of comparison: `CCOC(=O)c1c(OCC)[nH]c2c1cc(O)c1ccccc12`, AC50 56.9 µM. Against it:
- Cc1cc(NC(c2ccc(Cl)cc2)c2ccc3cccnc3c2O)no1 (configuration not stated) — 5.6-fold lower, 10.2 µM
- Cc1ccc(NC(=O)CSc2ccc(-c3ccccn3)nn2)cc1F — 14-fold lower, 3.98 µM
- C=CCSc1nnc(-c2cccc3ccccc23)o1 — 9.8-fold lower, 5.8 µM
- C[C@@H]1CN([C@H](C)CO)C(=O)c2cc(NC(=O)Nc3ccc(C(F)(F)F)cc3)ccc2O[C@@H](C)CCCCO[C@@H]1CN(C)Cc1ccc2c(c1)OCO2 — within 1.5-fold, 38.1 µM
- O=C(CSc1ccc(-c2ccccn2)nn1)Nc1ccccc1 — 29-fold lower, 1.96 µM
- Cc1cc(NC(=O)CC(C)C)c(=O)n(Cc2ccccc2F)c1 — 5.9-fold lower, 9.6 µM
- COc1ccc(NC(=O)N[C@H]2CC[C@@H](CCn3cc(-c4ccccn4)nn3)O[C@@H]2CO)cc1 — 4.3-fold lower, 13.3 µM
- NNc1nnc(-c2ccccc2)c(-c2ccccc2)n1 — 6.6-fold lower, 8.66 µM
- O=C(NCCCn1ccnc1)C(=O)NCC1OCCN1S(=O)(=O)c1ccc2c(c1)OCCO2 (configuration not stated) — 4.3-fold lower, 13.2 µM
- COC(=O)c1ccc(C(=O)O)nc1 — 1.7-fold lower, 32.8 µM
- O=C(CSc1ccc2nnc(-c3ccccn3)n2n1)Nc1ccccc1F — 2-fold lower, 28.6 µM
- C/C(=N\NC(=O)c1c[nH]c2ccccc12)c1ccc(C)o1 — 3.5-fold lower, 16.4 µM
- Cc1cc(=O)n2c3c(c4c(cc13)c(CN(C)C)cc(=O)n4C)OC2 — 3.2-fold lower, 17.7 µM
- CCc1cc2c(=O)[nH]c(-c3ccccn3)nc2s1 — 20-fold lower, 2.86 µM
- CC(=O)c1cccc(-c2ccc3c(=O)[nH]c(Nc4ccccc4)cc3c2)c1 — 2.5-fold lower, 23.1 µM
- Cc1ccccc1-n1c(O)c(/C=N/NC(=O)c2ccncc2)c(=O)[nH]c1=O — 4.9-fold lower, 11.5 µM
- Cc1ccc(S(=O)(=O)n2oc(=O)c(C3CCCCC3)c2N)cc1 — 3.6-fold lower, 16 µM
- O=C(Cn1cnc([N+](=O)[O-])n1)N/N=C/c1ccc(O)cc1O — 11-fold lower, 4.97 µM
- O=C(CSc1ccc2nnc(-c3ccccn3)n2n1)Nc1ccc(F)cc1F — 1.6-fold lower, 35.4 µM
- COC(=O)C1=COC(C)C2CN3CCc4c([nH]c5cc(OC)c(OC)cc45)C3CC12 (configuration not stated) — within 1.5-fold, 67.6 µM
- O=C(CN1CCCCCCC1)N/N=C/c1ccc(F)c(F)c1 — within 1.5-fold, 65.8 µM
- COc1ccccc1CNC(=O)CSc1ccc(-c2ccccn2)nn1 — 6-fold lower, 9.48 µM
- Nc1nnc2c(n1)CCCC2 — 12-fold lower, 4.63 µM
- CCC(COC)Oc1cc(NCc2ccccc2)c2ncn(C(C)C)c2c1 (configuration not stated) — 2.4-fold lower, 23.9 µM
- COc1cc(OC)c2c(-c3ccccc3)cc(=O)oc2c1C(CCN1CCCCC1)c1ccc(N(C)C)cc1 (configuration not stated) — 7.3-fold lower, 7.83 µM
- Oc1cc(-c2ccncc2)cc2cccnc12 — 74-fold lower, 0.771 µM
- O=C(Oc1c(CN2CCOCC2)cc(Cl)c2cccnc12)c1ccccc1Br — 5.5-fold lower, 10.3 µM
- COc1ccc(/C=N/Nc2nncn2N)cc1Br — 2.3-fold lower, 25.1 µM
- COc1cccc(/C=N/Nc2nc3ccccc3[nH]2)c1O — 2.1-fold lower, 26.6 µM
- O=c1[nH]c(N2CCOCC2)cc2ccccc12 — within 1.5-fold, 63.8 µM
- O=C(CSc1ccc2nnc(-c3ccccn3)n2n1)Nc1nccs1 — 5.1-fold lower, 11.2 µM
- Oc1c(CN2CCN(c3ccccc3)CC2)cc(Br)c2cccnc12 — 53-fold lower, 1.07 µM
- CN(CC(=O)O)Cc1nc2ccccc2[nH]1 — 7.3-fold lower, 7.77 µM
- COc1ccc(-c2nc(C#N)c(N3CCCCC3)o2)cc1 — 1.8-fold lower, 32.2 µM
- CC(=O)Nc1ccc(Oc2nc(-c3ccccn3)nc3ccccc23)cc1 — 8.1-fold lower, 7.02 µM
- COc1ccc(S(=O)(=O)n2oc(=O)cc2-c2ccccc2)cc1OC — 22-fold lower, 2.6 µM
- O=C(Nc1nnc(-c2ccncc2)o1)c1ccccc1 — 3-fold lower, 18.8 µM
- Cc1ccc(C)c(-n2c(SCC(N)=O)nnc2-c2ccccn2)c1 — 2.8-fold lower, 20 µM
- CCC(=O)NC(c1ccc(C)cc1)c1cc([N+](=O)[O-])c2cccnc2c1O (configuration not stated) — 16-fold lower, 3.54 µM
- O=C(N/N=C/c1cc(Br)ccc1OC(=O)c1ccc(Br)cc1)c1ccncc1 — 13-fold lower, 4.24 µM
- C/C(=N\NC(=O)C(c1ccccc1)c1ccccc1)c1ccc(O)cc1 — within 1.5-fold, 43.1 µM
- CCCOc1ccc(/C=N/Nc2cc(N3CCOCC3)ncn2)c(O)c1 — 7.1-fold lower, 8 µM
- Cc1oc(C(=O)O)cc1COc1cccc2cccnc12 — 1.6-fold lower, 36.6 µM
- COc1ccc(S(=O)(=O)N2CCCOC2CNC(=O)C(=O)NCCCn2ccnc2)cc1OC (configuration not stated) — within 1.5-fold, 47.2 µM
- COc1cccc(/C=N/NC(=O)C(=O)N2CCCCCC2)c1O — 3-fold lower, 18.8 µM
- c1ccc(-c2cn(C[C@H]3CC[C@H](Cn4cc(-c5ccccn5)nn4)O3)nn2)nc1 — lower, < 0.5 µM
- Oc1cc(Nc2ccncc2)cc2cccnc12 — 84-fold lower, 0.676 µM
- O=C(CCS(=O)(=O)c1ccc(F)cc1)Nc1nc(-c2ccccn2)cs1 — 9.1-fold lower, 6.22 µM
- O=S(=O)(N[C@@H]1CCCN(Cc2ccc(OCCO)cc2)C1)c1cccc2cccnc12 — 3.5-fold lower, 16.2 µM
- Oc1c(CN2CCCCC2)cc(Br)c2cccnc12 — 57-fold lower, 0.995 µM
- Cc1cccc(NC(=O)CSc2ccc(-c3ccccn3)nn2)c1C — 20-fold lower, 2.86 µM
- Cc1ccccc1NC(=O)CSc1ccc(-c2ccccn2)nn1 — 16-fold lower, 3.47 µM
- O=C(Nc1ccccc1C(F)(F)F)c1ncn[nH]1 — 4.3-fold lower, 13.1 µM
- c1ccc(CCNc2nc(-c3ccccn3)nnc2-c2ccccc2)cc1 — 110-fold lower, 0.513 µM
- CCOc1ccc(C2=Nn3c(nnc3-c3ccccn3)SC2)cc1 — 2.8-fold lower, 20.4 µM
- O=C(N/N=C/c1cc(Cl)ccc1O)c1cccnc1 — 7.4-fold lower, 7.68 µM
- COc1ccc(NC(=O)Nc2ccc3c(c2)CC(=O)N([C@H](C)CO)C[C@H](C)[C@@H](CN(C)Cc2ccc(Oc4ccccc4)cc2)O3)cc1 — 2.4-fold lower, 23.6 µM
- Oc1ccc(CN2CCN(Cc3ccccc3)CC2)c2cccnc12 — 24-fold lower, 2.41 µM
- COc1ccc(C)cc1NC(=O)CSc1ccc(-c2ccccn2)nn1 — 18-fold lower, 3.11 µM
- CCOc1ccc(C(=O)CCNC(Cc2cnc[nH]2)C(=O)O)cc1 (configuration not stated) — within 1.5-fold, 41.2 µM
- O=C(NCCCNCCCNC(=O)c1ccc(/C=N/O)nc1)c1ccc(/C=N/O)nc1 — 11-fold lower, 4.96 µM
- COc1cc(OC)cc(C(=O)Nc2nnc(-c3cccnc3)o2)c1 — 2.7-fold lower, 20.8 µM
- C[C@]12CC[C@H](O)CC1=CCC1C2CC[C@@]2(C)C1CC[C@@H]2NC(=O)[C@@H](N)Cc1cnc[nH]1 (some centres not stated) — 2-fold lower, 28.3 µM
- CC(=O)NC(c1cc(Cl)c2cccnc2c1O)C(C)C (configuration not stated) — 39-fold lower, 1.47 µM
- CN1CCC(=O)N(CCOc2ccccc2)CC1 — 13-fold lower, 4.44 µM
- CCN(CC)S(=O)(=O)c1ccc(NN)nc1 — 6.3-fold lower, 8.98 µM
- CCOc1cc(CNCc2ccccn2)cc(Cl)c1OC — within 1.5-fold, 39.7 µM
- O=C(Nc1nccs1)c1cnccn1 — within 1.5-fold, 63.9 µM
- c1cncc(-c2nc(NCCCn3ccnc3)c3ccccc3n2)c1 — 3.5-fold lower, 16.2 µM
- c1ccc(-c2nnc(-c3ccccn3)nc2N2CCC(c3ccccc3)C2)cc1 (configuration not stated) — 12-fold lower, 4.75 µM
- O=C(Nc1nc(-c2ccccn2)cs1)C1CCCC1 — 3.7-fold lower, 15.5 µM
- Cc1cc(NC(c2cccnc2)c2ccc3cccnc3c2O)no1 (configuration not stated) — 56-fold lower, 1.02 µM
- O=C(CSc1ccc(-c2ccccn2)nn1)N1CCCC1 — 19-fold lower, 3.05 µM
- O=C(NCCCn1ccnc1)C(F)(F)C(F)(F)C(=O)NCCCn1ccnc1 — within 1.5-fold, 38.5 µM
- CC(C)COCc1ccc(O)c2ncccc12 — 16-fold lower, 3.53 µM
- O=C(CN1C(=O)CCC1=O)Nc1nc(-c2ccccn2)cs1 — 13-fold lower, 4.39 µM
- c1ccc(-c2cnc(-c3ccccn3)nn2)cc1 — 18-fold lower, 3.23 µM
- c1ccc(-c2cccc(CNc3nc(-c4ccccn4)nnc3-c3ccccc3)c2)cc1 — 25-fold lower, 2.28 µM
- COc1cc(CCNC2=CC(=O)c3ncccc3C2=O)ccc1O — 1.6-fold lower, 34.8 µM
- c1ccc(-c2nnc(-c3ccccn3)nc2Nc2nc3ccccc3s2)cc1 — 110-fold lower, 0.509 µM
- COc1cccc(CNc2nc(-c3ccccn3)nnc2-c2ccccc2)c1 — 72-fold lower, 0.794 µM
- O=S(=O)(N[C@@H]1CC[C@@H](CCn2cc(-c3ccccn3)nn2)O[C@H]1CO)c1cccc(Cl)c1 — 3.7-fold lower, 15.3 µM
- O=C(CSC1=NNC(c2ccccn2)S1)Nc1ccccc1 (configuration not stated) — 69-fold lower, 0.823 µM
- Cc1ccc(S(=O)(=O)/N=C2\C=C(Nc3ccc(O)cc3)C(=O)c3ccccc32)cc1 — 17-fold lower, 3.43 µM
- O=C(CN1CC(=O)Oc2ccccc21)NCc1ccco1 — 28-fold lower, 2.05 µM
- Oc1cccc(/C=N/Nc2ccc(Cl)nn2)c1O — 38-fold lower, 1.5 µM
- O=S(=O)(c1ccc(Br)cc1)c1nc(-c2ccco2)oc1NCCCn1ccnc1 — 1.7-fold lower, 33.9 µM
- O=S(=O)(c1ccccc1)N1C[C@H]2[C@@H](c3ccccc31)[C@@H](CO)N2Cc1ccccn1 — within 1.5-fold, 52.3 µM
- COc1ccc(NC(=O)N[C@H]2CC[C@@H](CCn3cc(-c4ccccn4)nn3)O[C@H]2CO)cc1 — 3.3-fold lower, 17 µM
- O=C(NN=C(c1ccccc1)c1ccccn1)c1ccccc1 — 3.4-fold lower, 16.9 µM
- c1ccc(-c2nccc(-c3ccco3)n2)nc1 — 5.1-fold lower, 11.2 µM
- O=C(N[C@H]1CC[C@@H](CCn2cc(-c3ccccn3)nn2)O[C@@H]1CO)c1cccnc1 — 6.2-fold lower, 9.19 µM
- CC(=O)N1CCc2[nH]c3ccc(C)cc3c2C1 — 4.1-fold lower, 13.9 µM
- O=C(N[C@H]1CC[C@H](CCn2cc(-c3ccccn3)nn2)O[C@H]1CO)c1cccnc1 — 2.3-fold lower, 24.8 µM
- Oc1cc(NCCN2CCOCC2)cc2cccnc12 — 39-fold lower, 1.46 µM
- c1ccc(-c2nc3cc4ccccc4cc3[nH]2)nc1 — 1.7-fold lower, 32.7 µM
- Nc1[nH]c(=O)nc(Nc2ccccc2)c1N=O — 2.7-fold lower, 21.2 µM
- CCOc1ccccc1C(=O)OCC(=O)Nc1nnc(-c2ccccc2)o1 — 2.4-fold lower, 23.3 µM
- CSCc1cc(N(C)c2ccccc2)nc(-c2ccccn2)n1 — 9.7-fold lower, 5.86 µM
- CCOC(=O)C(NCc1ccccn1)(NC(=O)c1cccnc1)C(F)(F)F (configuration not stated) — 1.9-fold lower, 29.8 µM
- COc1ccc(Cc2nnc(N/N=C/c3ccccc3O)[nH]c2=O)cc1OC — 40-fold lower, 1.42 µM
- O=C(N/N=C/c1c(O)n(CCC2=CCCCC2)c(=O)[nH]c1=O)c1ccccc1 — 2.9-fold lower, 19.5 µM
- O=C(COc1ccccc1)Nc1nnc(-c2ccco2)o1 — 1.6-fold lower, 36.6 µM
- O=C(Nc1nc(-c2ccccn2)cs1)c1cc(Cl)ccc1[N+](=O)[O-] — 19-fold lower, 3.07 µM
- CCCC(=O)NC(c1cccs1)c1cc([N+](=O)[O-])c2cccnc2c1O (configuration not stated) — 16-fold lower, 3.51 µM
- CC(C)[C@H](NC(=O)c1ccccc1Cl)C(=O)Nc1nc(-c2ccccn2)cs1 — 8.5-fold lower, 6.72 µM
- O=C(Oc1ccc(Cl)c2cccnc12)c1cccnc1 — 5.9-fold lower, 9.58 µM
- Cc1ccc2nc(-c3ccccn3)c(NC3CCCC3)n2c1 — 5.6-fold lower, 10.2 µM
- O=C(NC[C@H]1[C@@H](c2ccccc2)[C@@H](CO)N1Cc1ccccn1)C1CC1 — within 1.5-fold, 48.4 µM
- O=C(CNS(=O)(=O)c1ccc([N+](=O)[O-])cc1)N/N=C/c1ccc(O)cc1O — 3-fold lower, 19.2 µM
- CC1CN(Cc2ccc(O)c3ncccc23)CC(C)O1 (configuration not stated) — 22-fold lower, 2.59 µM
- Cc1cccc(CSc2cccc3cccnc23)c1 — 32-fold lower, 1.79 µM
- O=C(Nc1nnc(-c2ccccn2)o1)c1cccc(Cl)c1 — 1.9-fold lower, 30.2 µM
- Cc1ccc(Nc2c(-c3ccccn3)nc3cc(C)ccn23)cc1 — 19-fold lower, 3.02 µM
- Cc1ccc(C)c(S(=O)(=O)N2CCCOC2CNC(=O)C(=O)NCCCn2ccnc2)c1 (configuration not stated) — 14-fold lower, 4.16 µM
- O=C(O)CCNc1cc(N2CCN(C(=O)c3ccco3)CC2)c2noc3c2c1C(=O)c1ccccc1-3 — 3.8-fold lower, 14.9 µM
